The text below walks through data of PubChem BioAssay (NCI).

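Each compound was tested at five concentrations against cells in 96-well plates for 48 hours. The concentration for 50% growth inhibition is given as GI50. The concentration for full growth arrest is given as TGI.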

The test system of the test is MDA-MB-468 breast. Nature of the test: NCI anticancer screen, dose series, 48 h.

As for `CCN1CCN(c2nc(C)cc(N(CCCNc3ccnc4cc(Cl)ccc34)Cc3ccc4c(c3)OCO4)n2)CC1`, the GI50 is 1.92 µM and the TGI stood at 4.93 µM.

As to `O=C1NC(=S)S/C1=C\c1cn(-c2ccccc2)nc1-c1ccccc1`, the GI50 was 6.83 µM and the TGI was 39.9 µM.

For the compound `COc1cc(/C=C/C(=O)c2cccc(-n3cc(-c4cc(OC)c(OC)c(OC)c4)[nH]c3=O)c2)cc(OC)c1OC`, the GI50 is 1.57 µM and the TGI stood at 3.25 µM.
